Data set [1] has as its target T1, human glutathione transferase A1-1 (hGSTA1-1) (Homo sapiens, UniProt P08263).
T1 construct: gene GSTA1; recombinant purified hGSTA1-1 homodimer
T1 sequence (P08263 2-222): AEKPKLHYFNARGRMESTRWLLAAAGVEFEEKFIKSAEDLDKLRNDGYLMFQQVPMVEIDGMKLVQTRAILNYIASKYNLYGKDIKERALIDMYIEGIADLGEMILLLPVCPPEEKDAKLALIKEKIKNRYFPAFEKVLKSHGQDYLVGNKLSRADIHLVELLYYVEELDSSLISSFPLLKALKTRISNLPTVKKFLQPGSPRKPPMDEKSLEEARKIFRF
Put plainly: X-ray crystal structure (GSH moiety of the GSH–CBL adduct); initial velocity kinetics with GSH as variable substrate. It is filed as binding.

Data set [2] has as its target T1, human glutathione transferase A1-1 (hGSTA1-1). The data set is described as follows: irreversible enzyme inactivation kinetics in absence of GSH (apparent KD, fast phase), MALDI-TOF MS of CBL-modified subunit, DTNB cysteine titration; also a substrate in presence of GSH. It is filed as biochemical. Conditions: read-out: Kd.
Data set [3] deals with the molecule itself. Put plainly: crystal structure; hGSTA1-1 (19.7 mg/mL) incubated with CBL at 1:3 molar ratio; 17-20% PEG 2000, 0.1 M Tris-HCl pH 7.5, 0.1 mM beta-mercaptoethanol, vapor diffusion at 20°C; 2.1 Å; monomers A and B in the model.

For the molecule `N[C@@H](CCC(=O)N[C@@H](CS)C(=O)NCC(=O)O)C(=O)O` [GSH], the “X-ray crystal structure (GSH moiety of the GSH-CBL adduct); initial velocity kin” value in data set [1] is on record as “Difference Fourier electron density maps indicate the presence of a GSH moiety in the G-site of the enzyme”. For `O=C(O)CCCc1ccc(N(CCCl)CCCl)cc1` [chlorambucil], the KI (inactivation) in data set [2] is 2950 ± 500 µM.

B1: human glutathione transferase A1-1 (enzyme)
chain: KPKLHYFNARGRMESTRWLLAAAGVEFEEKFIKSAEDLDKLRNDGYLMFQQVPMVEIDGMKLVQTRAILNYIASKYNLYGKDIKERALIDMYIEGIADLGEMILLLPVCPPEEKDAKLALIKEKIKNRYFPAFEKVLKSHGQDYLVGNKLSRADIHLVELLYYVEELDSSLISSFPLLKALKTRISNLPTVKKFLQPGSPRKPPMDEKSLEEARKIF
notes: glutathione transferase A1 subunit, human; the crystal model holds residues 4-220 (monomer A) and 3-221 (monomer B, without 112-115); Homodimer; MALDI-TOF of the unmodified subunit: m/z 25,482; also called hGSTA1-1; GSTA1-1; source: recombinant
For B1, the binding result in data set [3] is “binds”.

Values taken from PMC3584069, “The Interaction of the Chemotherapeutic Drug Chlorambucil with Human Glutathione Transferase A1-1: Kinetic and Structural Analysis” (PLoS ONE, 2013).
